The test system of the first data set is Vero cells. The experiment in a line: Cytotoxicity assay on Vero cells. In kind it is cell-based, African green monkey. The note with it: 48 h; tested at a maximum concentration of 8 μM; NC = not cytotoxic.
With “N1,N1,N10,N10-tetrakis(4-methoxybenzyl) decane-1,10 diamine [Compound 40]”, the “Cytotoxicity Vero cells IC50” value is on record as “NC (not cytotoxic at the maximum concentration tested (4.46 μg/mL))”.

Tested on in another data set: not listed separately
The experiment in a line: Cytotoxicity assay on Vero cells. The format is cell-based, African green monkey. The note with it: African green monkey, Vero cells (mammalian kidney fibroblasts).
`c1ccc(CNCCCNCc2ccccc2)cc1` [Compound 1, N1,N3-dibenzylpropane-1,3-diamine] yielded an IC50 at 48 h of more than 4.76 µg/mL.
Same read-out and setting: under `COc1ccc(CNCCCNCc2ccc(OC)cc2)cc1` [Compound 7, N1,N3-bis(4-methoxybenzyl)propane-1,3-diamine] stands more than 4.76 µg/mL; under `COc1ccc(CNCCCCNCc2ccc(OC)cc2)cc1` [Compound 8, N1,N4-bis(4-methoxybenzyl)butane-1,4-diamine], more than 4.76 µg/mL.
The same measure, in the same setting: for `COc1ccc(CNCCCCCCNCc2ccc(OC)cc2)cc1` [Compound 9, N1,N6-bis(4-methoxybenzyl)hexane-1,6-diamine] the value was 8.32 µM; for `COc1ccc(CNCCCCCCCCNCc2ccc(OC)cc2)cc1` [Compound 10, N1,N8-bis(4-methoxybenzyl)octane-1,8-diamine], more than 4.76 µg/mL; for `COc1ccc(CNCCCCCCCCCCNCc2ccc(OC)cc2)cc1` [Compound 11, N1,N10-bis(4-methoxybenzyl)decane-1,10-diamine], more than 4.76 µg/mL.
Same read-out and setting: under `COc1ccc(CNCCCCCCCCCCCCNCc2ccc(OC)cc2)cc1` [Compound 12, N1,N12-bis(4-methoxybenzyl)dodecane-1,12-diamine] stands more than 4.76 µg/mL.
`COc1ccc(CNCCCNCc2ccc(OC)c(O)c2)cc1O` [Compound 19, 5,5’-((propane-1,3-diylbis(azanediyl))bis(methylene))bis(2-methoxyphenol)] had an IC50 at 48 h of more than 4.76 µg/mL.
On the same count and under the same terms, for `COc1ccc(CNCCCCNCc2ccc(OC)c(O)c2)cc1O` [Compound 20, 5,5’-((butane-1,4-diylbis(azanediyl))bis(methylene))bis(2-methoxyphenol)] the value was more than 4.76 µg/mL; for `COc1ccc(CNCCCCCCNCc2ccc(OC)c(O)c2)cc1O` [Compound 21, 5,5’-((hexane-1,6-diylbis(azanediyl))bis(methylene))bis(2-methoxyphenol)], more than 4.76 µg/mL; for `COc1ccc(CNCCCCCCCCNCc2ccc(OC)c(O)c2)cc1O` [Compound 22, 5,5’-((octane-1,8-diylbis(azanediyl))bis(methylene))bis(2-methoxyphenol)], more than 4.76 µg/mL.
Still for that read-out and setting: for `COc1ccc(CNCCCCCCCCCCNCc2ccc(OC)c(O)c2)cc1O` [Compound 23, 5,5’-((decane-1,10-diylbis(azanediyl))bis(methylene)) bis(2-methoxyphenol)] the value was more than 4.76 µg/mL; for `COc1ccc(CNCCCCCCCCCCCCNCc2ccc(OC)c(O)c2)cc1O` [Compound 24, 5,5’-((dodecane-1,12-diylbis(azanediyl))bis(methylene))bis(2-methoxyphenol)], more than 4.76 µg/mL.
Same read-out and setting: under `COc1cc(CNCCCNCc2ccc(OCc3ccccc3)c(OC)c2)ccc1OCc1ccccc1` [Compound 25, N1,N3-bis(4-(benzyloxy)-3-methoxybenzyl) propane-1,3-diamine] stands 6.65 µM.
`COc1cc(CNCCCCNCc2ccc(OCc3ccccc3)c(OC)c2)ccc1OCc1ccccc1` [Compound 26, N1,N4-bis(4-(benzyloxy)-3-methoxybenzyl) butane-1,4-diamine]: the IC50 at 48 h is more than 4.76 µg/mL.
On the same count and under the same terms, under `COc1cc(CNCCCCCCNCc2ccc(OCc3ccccc3)c(OC)c2)ccc1OCc1ccccc1` [Compound 27, N1,N6-bis(4-(benzyloxy)-3-methoxybenzyl) hexane-1,6-diamine] stands more than 4.76 µg/mL.
Same read-out and setting: under `COc1cc(CNCCCCCCCCCCNCc2ccc(OCc3ccccc3)c(OC)c2)ccc1OCc1ccccc1` [Compound 29, N1,N10-bis(4-(benzyloxy)-3-methoxybenzyl) decane-1,10-diamine] stands more than 4.76 µg/mL.
Compound `COc1cc(CNCCCCCCCCCCCCNCc2ccc(OCc3ccccc3)c(OC)c2)ccc1OCc1ccccc1` [Compound 30, N1,N12-bis(4-(benzyloxy)-3-methoxybenzyl) dodecane-1,12-diamine] returned an IC50 at 48 h of more than 4.76 µg/mL.

In the next data set the test system is human foreskin fibroblast (HFF). The experiment in a line: Cytotoxicity on fibroblast. The format is cell-based. The note with it: no cytotoxicity at 10 μM.
`COc1cc(CNCCCNCc2ccc(OCc3ccccc3)c(OC)c2)ccc1OCc1ccccc1` [Compound 25, N1,N3-bis(4-(benzyloxy)-3-methoxybenzyl) propane-1,3-diamine]: the cytotoxicity on fibroblast is more than 10 µM.

For the next data set, the system named is P. falciparum W2.
Assay: not given
In kind it is cell-based. The note with it: Plasmodium falciparum, W2, 48 h, read-out: P. falciparum W2 IC50.
With `CCN(CC)CCCC(C)Nc1ccnc2cc(Cl)ccc12` (stereo not drawn) [CQ, Chloroquine, reference compound], the IC50 was found to be 0.422 µM.

Another data set has as its system P. falciparum D6.
Assay: not given
The note with it: Plasmodium falciparum, D6, 48 h, read-out: P. falciparum D6 IC50. In kind it is cell-based, Plasmodium falciparum.
Take `CCN(CC)CCCC(C)Nc1ccnc2cc(Cl)ccc12` (stereo not drawn) [CQ, Chloroquine, reference compound]: the IC50 was 0.083 µM.

The data set is the same for the next values; noted with them: Vero cells vs P. falciparum D6.
Regarding `COc1cc(CNCCCCNCc2ccc(OCc3ccccc3)c(OC)c2)ccc1OCc1ccccc1` [Compound 26, N1,N4-bis(4-(benzyloxy)-3-methoxybenzyl) butane-1,4-diamine], the “SI (Selectivity Index: IC50 Vero Cells/IC50 Parasites), P. falciparum D6” value is on record as more than 27.4.
Still for that read-out and setting: for `COc1cc(CNCCCCCCNCc2ccc(OCc3ccccc3)c(OC)c2)ccc1OCc1ccccc1` [Compound 27, N1,N6-bis(4-(benzyloxy)-3-methoxybenzyl) hexane-1,6-diamine] the value was more than 31.7.

The values above are taken from paper PMC6209510 (European journal of medicinal chemistry, 2017).
